{
  "source": "patent US5527778A",
  "about": "“Method for selective opening of abnormal brain tissue capillaries” (priority 1995, dated 1996)",
  "key": {"brain tumor capillaries": {"tested_on": "brain tumor capillaries", "conditions": "intracarotid infusion of LTC4; cited from earlier work"}, "[1]": {"parameters": "species or system rats", "conditions": "rat, in vivo", "experimental": "At infusion rates greater than 20 μg/kg/min the systemic blood pressure in the rats was reduced.\n(§1) [^14 C] AIB and [^14 C] dextran were used for quantitative autoradiographic examination of regional permeability. One week after tumor implantation, the rats were again anesthetized and a polyethylene (PE-10) catheter was inserted retrograde throughout the external carotid artery to the common carotid artery bifurcation ipsilateral to the tumor. The external carotid artery was then ligated. One femoral artery was cannulated to monitor systemic blood pressure and the other femoral artery was cannulated to withdraw arterial blood. Body temperature was maintained at […] and arterial blood gas levels, blood pressure, hematocrit were monitored. Animals with abnormal physiological parameters were eliminated. After rat preparation, bradykinin (10 μg/kg/min in saline) or saline as control was infused into the right carotid artery at a rate of 53.3 μ/min for 15 minutes. Five minutes after the start of the intracarotid infusion, 100 μCi/Kg of the tracer was injected as an intravenous bolus. A peristaltic withdrawal pump was used to withdraw femoral arterial blood at a constant rate of 0.083 ml/min immediately after injection of tracer for determination of serum radioactivity. Fifteen minutes after the start of intracarotid infusions, the animals were killed by decapitation and the brains were rapidly removed and frozen.\nOne week after tumor implantation, the rats were again anesthetized and a polyethylene (PE-10) catheter was inserted retrograde through the external carotid artery to the common carotid artery bifurcation ipsilateral to the tumor. The external carotid artery was then ligated. […] Body temperature was maintained at 37° C. and arterial blood gases, blood pressure, and hematocrit were monitored. […]\nRMP-7 infused at a rate greater than 1.0 μg/kg/min (dissolved in phosphate buffer, pH 7.4) reduced systemic blood pressure in rats when given either intravenously or into the carotid artery. […] Physiological parameters, which included arterial blood pH, PaO2, were also monitored."}, "[2]": {"conditions": "rat, in vivo; cited from earlier work"}, "RG-2 glioma [3]": {"tested_on": "RG-2 glioma", "test": "Microscopic analysis with intravenously injected horseradish peroxidase (HRP)", "format": "in vivo, Wistar rats", "experimental": "Microscopic analysis was performed using intravenously injected horseradish peroxidase (HRP) as described in (22). After rat preparation as previously described, bradykinin (10 μg/kg/min in saline) or saline as a control was injected into the fight carotid artery for 15 minutes. Five minutes after the start of the intracarotid infusion, 20 mg/100 g of horseradish peroxidase (HRP) was injected by an intravenous bolus. Ten minutes after the HRP injection, rats were perfused with a mixture of 2% glutaraldehyde and 2% formaldehyde in 0.1 sodium phosphate buffer solution at pH 7.4 through the heart. After fixation, the brains were removed and cut at 40 μm thickness on a vibratome. The sections were preincubated for 15 minutes at room temperature in the medium consisting of 10 ml 0.05 M-Tris-HCl buffer (pH 7.4), 3,3'-diaminobenzidine tetrahydrochloride and 0.02% hydrogen peroxide (Sigma). The sections were trimmed down to the areas of interests, post-fixed for 2 hours in 2% osmium tetroxide with 0.1M sodium phosphate, dehydrated, and embedded in plastic. Plastic sections 1 μm thick were observed under light microscopy."}, "RG-2 glioma [4]": {"tested_on": "RG-2 glioma", "test": "Regional permeability (unidirectional transfer constant Ki) by quantitative autoradiography after intracarotid infusion", "format": "in vivo, Wistar rats", "experimental": "An experimental brain tumor model was made using female Wistar rats and RG-2 glioma cells. The RG-2 glioma cell line was maintained in a monolayer culture in F12 medium with 10% calf serum. Female Wistar rats, each weighing 150 to 250 gm were anesthetized with intra peritoneal pentobarbital (30 mg/kg). Glial tumors were implanted into the right hemisphere by intracerebral injections of 1×10^5 RG-2 glioma cells in five μl of 1.2% methyl cellulose (F12 medium). One week after tumor implantation, the rats were used for the brain tumor model.\nThe rats were divided into two groups: a bradykinin group treated with intracarotid infusion of 10 […] of bradykinin or the control group treated with intracarotid infusion of saline. The effect of intracarotid infusion of bradykinin was compared to saline infusions by statistical analysis of the Ki values using ANOVA and Students T-Tests.\nas §1\nAutoradiography was conducted as follows: the frozen brains were mounted onto pedestals with M-1 embedding matrix, and 20 μm coronal sections were cut into a cryotome. The sections were thawmounted onto cover slips, and autoradiograms were generated by coexposing the sections on Kodak XAR-5 film with tissue-calibrated ^14 C standards for 2 weeks. The sequential section was stained with hematoxylin for correlation of areas of histologically verified tumor with autoradiograms. The regional radioactivities were measured in tumor, brain surrounding the tumor (BST; areas at around 2 mm distance from the border of the tumor), ipsilateral cortex to tumor (ipsi cortex), contralateral cortex (contra cortex), ipsilateral white matter (ipsi WM), contralateral WM (contra WM), ipsilateral basal ganglia (ipsi BGG), and contralateral BGG (contra BGG). Quantitative analysis of the regional radioactivity was performed using a computer (Macintosh II) with a scanner (UMAX UC630) and the software, Image 1.45 (NIH). […]\nThe frozen brains were mounted onto pedestals with M-1 embedding matrix, and 20 μm coronal sections were cut with a cryotome. The sections were thaw-mounted onto cover slips, and autoradiograms were generated by co-exposing the sections on Kodak XAR-5 film with tissue-calibrated ^14 C standards for 2 weeks. The sequential section was stained with hematoxylin for correlation of areas of histologically verified tumor with autoradiograms. The regional radioactivity was measured in tumor, brain surrounding the tumor (BST; areas within 2 mm distance from the border of the tumor), ipsilateral cortex to tumor, contralateral cortex, ipsilateral white matter (WM), contralateral WM, ipsilateral basal ganglia (BG), and contralateral BG. […]"}, "RG-2 glioma [5]": {"tested_on": "RG-2 glioma", "test": "Evans blue (EB-albumin) staining of tumor and brain after intracarotid infusion", "format": "in vivo, Wistar rats", "conditions": "intracarotid bradykinin infusion; 2 ml/kg of 2% EB i.v.", "experimental": "After the intracarotid bradykinin infusion, the rat was perfused with 200 ml of phosphate buffer through the heart to wash out the remaining EB from the vessels. The brains were removed immediately and cut as coronal sections.\nSince EB binds to serum albumin (MW 67,000) in blood and distributes with albumin in vivo, EB staining in the tissue indicates the distribution of albumin (4). In order to observe the extravasated EB and not the EB remaining in the vessels in the brain, the blood from the brain was washed out by perfusing the rats with phosphate buffer from the heart.\nSix rats were used to examine whether RMP-7 could selectively deliver albumin to tumors. Evans blue (EB) was injected intravenously instead of radiolabeled tracers. After the preparation of rats, 2 ml/kg of 2% EB was injected intravenously instead of radiolabeled tracers. After the intracarotid RMP-7 (n=3) or vehicle (n=3) infusion, the rat was perfused with 200 ml of phosphate buffer through the heart to wash out the remaining EB from the vessels. The brains were removed immediately and cut as coronal sections."}, "RG-2 glioma [6]": {"tested_on": "RG-2 glioma", "test": "Blood volume in brain and tumor by graphic method using [14C] dextran", "format": "in vivo, Wistar rats", "conditions": "intracarotid bradykinin infusion", "experimental": "The blood volume for the quantitative examination of permeability was calculated with a graphic method using [^14 C] dextran (MW 70,000). The blood volume in normal brain tissue and tumors were 4.5 and 9.15 μ/g, respectively (FIG. 1). The slopes were the unidirectional transfer constants, the Ki values (μl/g/min), in the two groups. […] The tumor blood volume was almost twice that of the normal brain tissue, but the brain and tumor blood volumes were not altered by intracarotid bradykinin infusion.\nRMP-7 (at 1.5 μg/kg) or vehicle (control) was infused into the right carotid artery at a volume rate of 0.8 ml over 15 minutes (i.e. 53 μ/min). In blood volume studies, 100 μCi/kg of [^14 C] dextran was injected as an intravenous bolus at either 5, 10, 14 or 14.5 minutes after the start of the intracarotid infusion to make the circulation time of dextran 10, 5, 1, 0.5 minutes, respectively. […] A peristaltic withdrawal pump was used to withdraw femoral arterial blood at a constant rate of 0.083 ml/min immediately after the injection of the tracer for the determination of serum radioactivity. […]\nThe blood volume for the quantitative examination of permeability was calculated with a graphic method using [^14 C] dextran. […] Ki was similar in these experiments whether calculated using the graphic method or the method described by Ohno (25) and Ziylan (26)."}, "normal brain capillary": {"tested_on": "normal brain capillary", "conditions": "in vivo; cited from earlier work"}, "[7]": {"tested_on": "brain capillary endothelial cells", "conditions": "nanomolar concentrations of bradykinin; cited from earlier work"}, "[8]": {"conditions": "tumor, intracarotid bradykinin 10 μg/kg/min vs saline"}},
  "note": "Residues, ends and D or L forms follow the SMILES beside them.",
  "data": [
    {"molecule": "CCCCC/C=C\\C\\C=C/C=C/C=C/[C@@H](SC[C@H](NC(=O)CC[C@H](N)C(=O)O)C(=O)NCC(=O)O)[C@@H](O)CCCC(=O)O", "note": "[LTC4, leukotriene C4]", "values": [
      {"measurement": "Effect on capillary permeability", "setting": "brain tumor capillaries", "value": "selectively increases the permeability in brain tumor capillaries without affecting the permeability in normal brain capillaries"}
    ]},
    {"molecule": "NC(N)=NCCC[C@H](NC(=O)[C@H](Cc1ccccc1)NC(=O)[C@@H]1CCCN1C(=O)[C@H](CO)NC(=O)[C@H](Cc1ccccc1)NC(=O)CNC(=O)[C@@H]1CCCN1C(=O)[C@@H]1CCCN1C(=O)[C@@H](N)CCCN=C(N)N)C(=O)O", "note": "[bradykinin] (H-RPPGFSPFR-OH)", "values": [
      {"measurement": "Effect on systemic blood pressure", "setting": "[1]", "value": "did not alter systemic blood pressure"},
      {"measurement": "Infusion rate at which systemic blood pressure was reduced", "setting": "[1]", "value": "greater than 20 μg/kg/min"},
      {"measurement": "Degradation of bradykinin in rats, time", "setting": "[2]", "value": "several hours"},
      {"measurement": "HRP extravasation in normal brain", "setting": "RG-2 glioma [3]; normal brain, bradykinin 10 μg/kg/min intracarotid", "value": "no extravasation of HRP between cells"},
      {"measurement": "HRP stain in tumor", "setting": "RG-2 glioma [3]; tumor, bradykinin 10 μg/kg/min intracarotid 15 min", "value": "well recognized in the extracellular space between tumor cells"},
      {"measurement": "Ki value of the brain surrounding tumor (BST) for [14C] AIB", "setting": "RG-2 glioma [4]; BST, 2 mm from tumor border, intracarotid bradykinin 10 μg/kg/min", "value": "3.50 ± 1.29", "unit": "µL/g/min"},
      {"measurement": "Ki values of brain regions without tumor, treated vs control", "setting": "RG-2 glioma [4]; normal brain regions, intracarotid bradykinin 10 μg/kg/min", "value": "no significant differences"},
      {"measurement": "Ki value of the tumors for [14C] AIB (MW 103)", "setting": "RG-2 glioma [4]; tumor, intracarotid bradykinin 10 μg/kg/min for 15 min", "value": "25.91 ± 6.78", "unit": "µL/g/min"},
      {"measurement": "Ki value of the tumors for [14C] dextran (MW 70,000)", "setting": "RG-2 glioma [4]; tumor, intracarotid bradykinin 10 μg/kg/min for 15 min, mean±SD", "value": "17.84 ± 1.00", "unit": "µL/g/min"},
      {"measurement": "Ki of tumors for [14C] AIB, fold higher than control group", "setting": "RG-2 glioma [4]; [8]", "value": 1.8, "unit": "fold"},
      {"measurement": "Ki of tumors for [14C] dextran, fold higher than control group", "setting": "RG-2 glioma [4]; [8]", "value": 12, "unit": "fold"},
      {"measurement": "Evans blue staining", "setting": "RG-2 glioma [5]", "value": "well recognized in the tumor but not in the normal brain"},
      {"measurement": "Brain and tumor blood volumes, change by infusion", "setting": "RG-2 glioma [6]", "value": "not altered"},
      {"measurement": "HRP around normal brain capillary at high dose", "setting": "normal brain capillary", "value": "caused intravasation of HRP around the normal brain capillary"},
      {"measurement": "Stimulation of uptake of Lucifer yellow", "setting": "[7]", "value": 40, "unit": "%"}
    ]},
    {"molecule": "C[C@H](CS)C(=O)N1CCC[C@H]1C(=O)O", "note": "[captopril]", "values": [
      {"measurement": "Systemic pressure when intravenous captopril infusion was used to enhance bradykinin effect", "setting": "[1]; iv", "value": "hypotension occurred"}
    ]}
  ]
}
